Experimental findings from PubChem BioAssay (NCI) are described below.

Test systems include EKVX NSCLC; OVCAR-5 ovarian; KM12 colon; SN12C renal; M14 melanoma; HCT-15 colon; MCF7 breast; U251 CNS; ACHN renal; UACC-62 melanoma; SK-MEL-2 melanoma.
Test in all cases: NCI-60 cell line screen, 48 h

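1) Cells in 96-well plates. 2) Compound, 48 h, 5 concentrations. 3) Linear interpolation between surrounding doses. 4) Unreached endpoint = highest concentration. At the TGI there is no net growth.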

As to `CC(C)C(NC(=O)Oc1ccccc1)C(=O)NC1c2c(Br)sc(Br)c2C(=O)C1O` (stereo unspecified), the TGI was 15.2 µM in the assay on EKVX NSCLC; 15.4 µM in the assay with OVCAR-5 ovarian; above 25 µM in the assay with KM12 colon; 10.8 µM with SN12C renal; 11.4 µM in the assay with M14 melanoma; 8.39 µM with HCT-15 colon. The TGI in the assay with MCF7 breast is above 25 µM; in the assay with U251 CNS, 9.53 µM; in the assay with ACHN renal, 10.2 µM; with UACC-62 melanoma it was 8.08 µM; with SK-MEL-2 melanoma, 17.7 µM.
In the case of `O=C1c2ccccc2-n2nnnc2C2CSCN12` (stereo unspecified), the TGI with EKVX NSCLC, with OVCAR-5 ovarian, in the assay with KM12 colon, with SN12C renal, in the assay on M14 melanoma and in the assay on HCT-15 colon was above 100 µM each time. The TGI with MCF7 breast, in the assay on U251 CNS, with ACHN renal, in the assay on UACC-62 melanoma and in the assay on SK-MEL-2 melanoma was above 100 µM throughout.
Take `O=C(O)C1C2c3ccccc3C(c3ccccc32)C1C(=O)NCC1CC1` (stereo unspecified): the TGI with EKVX NSCLC, in the assay on OVCAR-5 ovarian, in the assay on KM12 colon, in the assay on SN12C renal, in the assay on M14 melanoma and in the assay on HCT-15 colon was above 100 µM throughout. The TGI with MCF7 breast, in the assay with U251 CNS, with ACHN renal, with UACC-62 melanoma and in the assay with SK-MEL-2 melanoma was above 100 µM throughout.
For the compound `COC(=O)c1ccc(Cc2cc(Cc3ccc(C(=O)OC)cc3)cc(Cc3ccc(C(=O)OC)cc3)c2)cc1`, the TGI in the assay with EKVX NSCLC, in the assay on OVCAR-5 ovarian, in the assay on KM12 colon, in the assay with SN12C renal, with M14 melanoma and with HCT-15 colon was above 25 µM each time. Also, the TGI with MCF7 breast, in the assay on U251 CNS, with ACHN renal, in the assay with UACC-62 melanoma and in the assay on SK-MEL-2 melanoma was above 25 µM in each case.
Take `N#C/C(N)=C(\C#N)NC=NCCO`: the TGI with EKVX NSCLC, in the assay on OVCAR-5 ovarian, in the assay on KM12 colon, with SN12C renal, with M14 melanoma and in the assay with HCT-15 colon was above 100 µM throughout. The TGI in the assay on MCF7 breast, in the assay on U251 CNS, with ACHN renal, with UACC-62 melanoma and in the assay on SK-MEL-2 melanoma was above 100 µM each time.
As for `C[C@]12[C@@H]3CC[C@H]1[C@@H](O)C(=O)N2CC3`, the TGI in the assay with EKVX NSCLC, in the assay with OVCAR-5 ovarian, with KM12 colon, in the assay on SN12C renal, in the assay on M14 melanoma and with HCT-15 colon was above 100 µM each time. In addition, the TGI in the assay with MCF7 breast, in the assay on U251 CNS, with ACHN renal, with UACC-62 melanoma and in the assay on SK-MEL-2 melanoma was above 100 µM each time.
